Assay: gradient 5% acetonitrile 3 min, to 50% in 2 min, to 85% in 15 min, held 3 min, 100 µL/min
Conditions: column: Zorbax Extend-C18 2.1 x 50 mm; eluents: water / acetonitrile, 0.1% formic acid
Outline: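 Retention times come from adduct peaks that were picked computationally and then checked by hand. The standards, pure and pooled in mixtures of ~100 molecules, were run on a Zorbax Extend-C18 column (2.1 × 50 mm, 1.8 μm) at 100 μL/min with water and acetonitrile, each with 0.1% formic acid. Detection was by quadrupole time-of-flight mass spectrometry in positive and negative ionization mode, with a dead volume of 40 μL and a dwell volume of 900 μL.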

Row | RP-LC retention time [s] | Compound
1 | 921 | CC(C)CN1CCn2cc(S(=O)(=O)N3CCN(c4ccccc4)CC3)cc2C1=O
2 | 1130 | CC1=NS(=O)(=O)N(Cc2ccccc2)C=C1C(=O)OCc1nc(-c2ccccc2Cl)no1
3 | 1040 | CCOc1ccc(CNS(=O)(=O)c2cc(-c3cnn4c(C)cc(C)nc34)ccc2C)cc1OCC
4 | 964 | CC1CCN(S(=O)(=O)c2cc(-c3nnc(C(C)C)o3)co2)CC1
5 | 784 | COc1cccc(NC(=O)C2c3ccccc3C(=O)N3CCc4cc(OC)c(OC)cc4C23)c1 (stereo not drawn)
6 | 670 | CCc1nn2c(N3CCN(c4ccccn4)CC3)cc(C)nc2c1-c1ccccc1
7 | 620 | Cn1cc(-c2cc3n(n2)CCCN3C(=O)CCC(=O)NCCCN2CCCC2)c2ccccc21
8 | 809 | Cc1csc(-c2cc(S(=O)(=O)NC3CC3)c(C)n2C)n1
9 | 758 | CCCn1cc(C(=O)NCCCN(C)C)c(S(=O)(=O)N2CCN(c3cccc(Cl)c3)CC2)n1
10 | 1300 | Cc1csc(-c2cc(S(=O)(=O)N3CCC(Cc4ccccc4)CC3)c(C)n2C)n1
11 | 1100 | O=C1CC(c2noc(-c3ccc(F)cc3)n2)CN1c1ccc(F)c(Cl)c1 (stereo not drawn)
12 | 761 | Cc1ccccc1-c1noc(-c2cccn(CC(=O)NC(C)C)c2=O)n1
13 | 931 | CCCN(CC1CCOC1)S(=O)(=O)c1cccc(C)c1 (stereo not drawn)
14 | 873 | COc1ccc(CNS(=O)(=O)c2ccc(-c3nnc(C4CCC4)o3)o2)cc1
15 | 1180 | CCCCCn1c(=O)c2ccccc2n(Cc2nc(-c3ccc4c(c3)OCO4)no2)c1=O
16 | 523 | Cc1c(C(=O)N2CCN(C)CC2)sc2ncnc(N3CCN(c4ccccn4)CC3)c12
17 | 840 | COc1ccc(NC(=O)C2CCN(S(=O)(=O)c3ccc4c(c3)sc(=O)n4C)CC2)c(OC)c1
18 | 704 | O=C(N1CCC(NS(=O)(=O)c2cccc(F)c2)CC1)N1C[C@H]2C[C@H](C1)[C@H]1CCCC(=O)N1C2
19 | 581 | CCN(CC)CCCNC(=O)c1cc2n(n1)CC(C)(C(=O)NCc1ccccc1)N(C)C2=O (stereo not drawn)
20 | 786 | COc1ccccc1NC(=O)Cc1csc2nc(-c3ccccc3)cn12
21 | 850 | COc1ccc(NC(=O)Cn2cccc2-c2nnc(-c3ccccc3)o2)cc1OC
22 | 931 | CCOc1ccc(N2CC(c3nc(-c4ccccc4C)no3)CC2=O)cc1 (stereo not drawn)

Row | RP-LC retention time [s] | Compound
23 | 989 | CCCn1cc(S(=O)(=O)Nc2ccc(F)cc2Cl)c2cccnc21
24 | 670 | Cn1c(=O)n(C)c2cc(N3CCCC3)c(NC(=O)Cc3ccccc3)cc21
25 | 654 | Cn1ccc2cc(S(=O)(=O)N3CCCC(C(=O)NCCN4CCCCC4)C3)ccc21 (stereo not drawn)
26 | 836 | Cc1noc(C)c1C1CCCN1C(=O)Nc1ccccc1Br (stereo not drawn)
27 | 622 | Cn1c(=O)c(C(=O)N2CCCC2)nc2ccccc21
28 | 661 | CC(=O)N1CCC(c2nc(-c3ccc(CNC(=O)C4CC4)s3)no2)CC1
29 | 644 | Cc1noc([C@@H]2CN(C(=O)CC(C)(C)C)C[C@H]2CO)n1
30 | 747 | CCC(=O)N1CCc2cc(CNS(=O)(=O)c3ccc(OC)c(OC)c3)ccc21
31 | 977 | COc1cc(OC)cc(-c2nc(C3CC(=O)N(c4ccc(F)cc4)C3)no2)c1 (stereo not drawn)
32 | 598 | CCn1c(CCNC(=O)c2ccccc2)nc2cccnc21
33 | 873 | COc1ccc(NC(=O)C2CCc3nc(N4CCC(C)CC4)ncc3C2)c(OC)c1 (stereo not drawn)
34 | 653 | CCCNC(=O)CC1CCN(C(=O)c2c(C)[nH]c(C(=O)OCC)c2C)CC1
35 | 753 | O=C(Cn1c(=O)cc(C(=O)N2CCCCC2)c2ccccc21)NC1CCCCC1
36 | 1260 | Cn1cc(-c2nc(C(=O)Nc3cc(F)ccc3Cl)cs2)c2cccnc21
37 | 868 | COc1ccc(-n2ccc(=O)c(-c3nc(-c4cccc(F)c4)no3)n2)cc1
38 | 641 | O=C(c1cnccn1)N1CCC2(CC1)N=C(c1ccccc1)NO2
39 | 641 | Cc1cc(C)n(CC(=O)N2CCC[C@H]2c2nc(-c3ccccc3)n[nH]2)n1
40 | 1110 | CCC(C)N(C)C(=O)c1cc2ccccc2c(-c2ccccc2Cl)n1 (stereo not drawn)
41 | 603 | O=C(NCCc1csc(C2CCN(C(=O)C3CCCO3)CC2)n1)C1CC1 (stereo not drawn)
42 | 893 | COc1ccc(-c2noc(-c3nc(-c4cccnc4)no3)n2)cc1OC
43 | 755 | Cc1ccc(NC(=O)N2C[C@@H](F)C[C@H]2C(=O)N2CCCCC2)cc1F
44 | 769 | CCOC(=O)c1nc(NCCc2ccccc2)c2ccccc2n1

Row | RP-LC retention time [s] | Compound
45 | 610 | COc1ccc(NC(=O)c2cn3c(n2)CCCC3)c(OC)c1
46 | 903 | CCN(Cc1ccccc1)C(=O)C(=O)c1c[nH]c2ccccc12
47 | 720 | CCCNC(=O)C1CCCN(c2ccc(SCC(=O)Nc3cccc(Cl)c3C)nn2)C1 (stereo not drawn)
48 | 832 | COc1ccc(S(=O)(=O)NCc2c(-c3ccccc3)nc3sc(C)nn23)cc1
49 | 640 | Cc1noc([C@@H]2CN(C(=O)c3cc(C)oc3C)C[C@H]2CO)n1
50 | 648 | CCOC(=O)C1=C(N)Oc2cc(C)n(CCN(C)C)c(=O)c2C1c1ccccc1F (stereo not drawn)
51 | 1040 | C=CCn1c(=O)c2ccccc2n(Cc2nc(-c3ccccc3Br)no2)c1=O
52 | 695 | COC(=O)c1cccc(NC(=O)CSc2nccc(N3CCN(c4ccccc4OC)CC3)n2)c1
53 | 1070 | Cc1ccc(C(C)NC(=O)C2CCN(c3nccnc3Oc3ccccc3)CC2)cc1C (stereo not drawn)
54 | 765 | COCCCNC(=O)Cn1nc2cc(C)nc(-c3ccc(C(F)(F)F)cc3)n2c1=O
55 | 765 | Cc1ccc(-n2cc3c(N4CCCC(C(=O)NCc5ccc(OC(C)C)cc5)C4)ncnc3n2)cc1 (stereo not drawn)
56 | 654 | CN1CCN(C(=O)c2nnc(-c3ccc(S(=O)(=O)N4CCCCC4)cc3)o2)CC1
57 | 692 | COc1cccc(NC(=O)N(C)CCc2noc(COc3ccccc3F)n2)c1
58 | 808 | Cc1ccc2c(Nc3cccc(Cl)c3)c(-c3nc(C)no3)cnc2n1
59 | 643 | COc1ccccc1CNC(=O)c1nc(N2CCOCC2)c2c(C)cc(C)nc2n1
60 | 686 | CCOc1ccc(C(=O)N2CCC(c3cc(N)on3)CC2)cc1
61 | 708 | CCCNC(=O)N1C[C@@H]2C(=O)N(Cc3ccc4c(c3)OCO4)C(=O)[C@@H]2C1
62 | 1090 | CCOc1ccccc1-c1nc(C2CC(=O)N(c3ccc(C)cc3)C2)no1 (stereo not drawn)
63 | 691 | CC(NC(=O)c1ccco1)c1nc2ccccc2n1CC(=O)N(C(C)C)C(C)C (stereo not drawn)
64 | 783 | COc1cc([C@@H]2c3cc4c(cc3[C@H](O)[C@@H](CO)[C@@H]2C(=O)NCc2cccc(C(F)(F)F)c2)OCO4)cc(OC)c1OC
65 | 772 | CCOc1ccccc1NC(=O)Cn1c(=O)n(Cc2cccs2)c(=O)c2ncccc21
66 | 793 | Cc1ccc(NC(=O)Cn2c(-c3cnccn3)nc(C)c(C)c2=O)cc1F

Row | RP-LC retention time [s] | Compound
67 | 596 | CCc1ccc(NC(=O)Cn2c(N)nc(C)c(C)c2=O)cc1
68 | 616 | Cc1cc(C)cc(-n2ccn3c(CCCC(=O)N4CCN(c5ccccn5)CC4)nnc3c2=O)c1
69 | 709 | O=S(=O)(c1ccccc1)N1CCC(Cc2nncn2-c2ccccc2)C1 (stereo not drawn)
70 | 673 | COc1ccc(-c2ncccc2CNS(=O)(=O)c2ccc(C#N)cc2)cc1
71 | 586 | COc1cc2c(cc1OC)C(COc1cccc(C(F)(F)F)c1)NCC2 (stereo not drawn)
72 | 686 | COCCCNC(=O)C(C)n1nc(C)c2c(C)n(-c3ccccc3)nc2c1=O (stereo not drawn)
73 | 580 | CCNC(=O)c1cc(N2CCCC2)nc2ccc(F)cc12
74 | 737 | CCOC(=O)COC(=O)c1cn(-c2ccc(CC)cc2)c(=O)c2ccccc12
75 | 997 | CC(=O)c1cccc(NC(=O)c2csc3c2CCC(C)C3)c1 (stereo not drawn)
76 | 648 | Cn1nc(C(=O)N2CCCC(C(=O)NC3CC3)C2)c2c1CCN(C(=O)c1ccccc1Cl)C2 (stereo not drawn)
77 | 761 | CCc1cc(=O)n(CC(=O)N2CCN(c3ccccc3F)CC2)c(N2CCOCC2)n1
78 | 1130 | COC(=O)c1ccc(C(=O)OC)c(NC(=O)CSc2ncnc3sc(C)c(C)c23)c1
79 | 757 | O=C(NCc1nc2cccnc2n1Cc1ccc(F)cc1)c1ccc(Br)o1
80 | 1030 | O=C(Cc1csc(Nc2ccc(Cl)cn2)n1)Nc1ccc(OC(F)(F)F)cc1
81 | 598 | O=C(c1cc(-c2ccncc2)n[nH]1)N1CCN(C(=O)c2cc3ccccc3[nH]2)CC1
82 | 910 | COc1ccc2cc(C(=O)Nc3ccc(F)cc3)[nH]c2c1
83 | 591 | CCN(CC)CCNC(=O)CC1Sc2ccccc2NC1=O (stereo not drawn)
84 | 675 | O=C(NCc1ccccc1F)c1cccc(-c2ccc(N3CCCC3)nc2)c1
85 | 808 | Cc1ccc(N2C(=O)CCS2(=O)=O)cc1S(=O)(=O)Nc1cccc2cccnc12
86 | 784 | CCc1cc(=O)n(CC(=O)Nc2ccccc2CC)c(N2CCOCC2)n1
87 | 696 | CCOC(=O)c1noc2nc(C)nc(NCC3CCN(Cc4cccc(Cl)c4)CC3)c12

Row | Compound | RP-LC retention time [s]
88 | COc1ccc2c(c1)C1(CCN(C(=O)Cc3ccccc3Cl)C1)C(=O)N2 (stereo not drawn) | 773
